For data set [1], the system named is mice. As to the kind of experiment: Cognitive acuity test (novel place recognition) in mice at 7 months. Type of data set: in vivo, mouse. From the text: This is a cognitive test to measure short-term working memory, involving recognition of a familiar object found in an unfamiliar place (see Magen et al., Eur J Neurosci 35:870-882, 2012; Magen and Chesselet, J Parkinson's Disease 1:217-227, 2011). A Discrimination Index (DI)=(tnovel−tfamiliar)/(tnovel+tfamiliar) was used to assess the time spent exploring near the object in a novel place (“tnovel”) vs. the total exploration time overall. Discrimination Index scores greater than zero are considered to indicate good place recognition memory.
Three groups of mice, with at least 13 mice in each group, are given a cognitive acuity test at 7 months. The three groups of mice are: “High Dose” Group (150 mg/kg/day of compound 2), “Low Dose” (50 mg/kg/day of compound 2) Group, and a Control Group (no compound 2).
The dosage results are substantially lower than doses previously observed to effectively promote GCase chaperoning activity in mice (e.g., Migdalska-Richards et al., Ann Neurol 80:766-775, 2016).

Data set [2] relates to male BDF1 mice. As to the kind of experiment: Lifespan study in mice fed compound in chow. Format: in vivo, mouse. The following applies: 50 mg/kg daily as chow supplement, vs control (FIG. 3).
Description: Group 1 represents control animals that were not administered ambroxol; and Group 2 represents animals administered 50 mg/kg (body weight) of ambroxol daily as a chow supplement, starting at 2 months of age.
Weaned male BDF1 mice raised from pups, housed 1-4 animals per cage and fed Teklad 7013 NIH-31 rodent chow and water ad libitum, at 2 months of age, are divided into two roughly equal groups of 22-25 animals. One group continues to be fed the Teklad chow as before (control); the other group is switched to Teklad chow formulated with compound 2 at 300 mg per kg of chow. This formulation was designed, based on the average ad libitum chow consumption of an adult male BDF1 mouse, to deliver 50 mg/kg/day (based on body mass) to each mouse in the treated group. Mice are maintained on this diet until they die naturally or until they reach 16 months of age, at which time the experiment ends. During the course of the experiment, all mice are periodically removed from their cages and handled in the course of subjecting them to various sensorimotor, cognitive, and/or behavioral tests.
Group 1 represents control animals that were not administered ambroxol; Group 2 represents animals administered 50 mg/kg of ambroxol daily as a chow supplement, starting at 2 months of age.
Data set [3] in a line: Metabolic stability in human liver microsomes. The conditions noted are these: human liver microsomes 1 mg/mL protein, 1 μM compound, 37° C., NADPH-regenerating system; for half-life at 1 μM: 0-120 min, read-out: In vitro elimination half-life t1/2; for microsomal CLint at 1 μM: read-out: In vitro intrinsic clearance CLint-microsomes. Type of data set: in vitro ADME. The protocol:
Study design—Test compounds (ambroxol and deuterated analogs) were dissolved in dimethylsulfoxide (DMSO) to prepare 1 mM stock solutions. The compounds were added to preparations of human liver microsomes (200 μL per incubation at a 1 mg/mL protein concentration) such that the final compound concentration was 1 μM. The samples were incubated at 37° C. in the presence of a reduced nicotinamide adenine dinucleotide phosphate (NADPH)-regenerating system (NADP, 1 mM, pH 7.4; glucose-6-phosphate, 5 mM, pH 7.4; glucose-6-phosphate dehydrogenase, 1 unit/mL)). A positive control (midazolam, 1 μM, 0.1 mg/mL protein) was incubated concurrently to ensure the microsome preparation was performing as expected. Samples were obtained at t=0, 30, 60, and 120 min and quenched by addition of acetonitrile.
Quenched samples were analyzed by liquid chromatography coupled to tandem mass spectrometry detection (LC/MS-MS). The concentration of the test compounds at each time point were converted to percent remaining relative to the concentration of the compound at time t=0 (which serves as the 100% value). All data points were included in data processing. The rate constant of elimination (kel, min^−1) of each test compound was determined from the time course of disappearance of the parent compound based on fitting the experimental data to a single exponential decay formula (At=Aoe^−kelt, where At is the % remaining at time t, Ao is 100%, kel is the elimination rate constant, and t is time). The in vitro half-life (t1/2) was determined from kel based on the formula: t1/2=ln(2)/kel. The rate constant of elimination was also used to calculate the in vitro intrinsic clearance CLint-microsomes (μL/min/mg protein).
(Microsomes from liver hold many membrane-bound enzymes, among them those of drug oxidation.)

As to `Nc1c(Br)cc(Br)cc1CN[C@H]1CC[C@H](O)CC1` [ambroxol, trans-4-((2-amino-3,5-dibromobenzyl)amino)cyclohexanol], in data set [1] (50 mg/kg/day), the “Cognitive acuity, Low Dose Group” value is “results in between the Control Group and the “High Dose” Group”. Also, the “Cognitive acuity, High Dose Group” value in data set [1] (150 mg/kg/day) is listed as “best cognitive acuity results”. The Cognitive acuity entry in data set [1] (High Dose and Low Dose vs Control (FIG. 4)) is recorded as “dose-related improvement”. Further, the Lifespan entry in data set [2] (starting at 2 months of age) is “able to increase lifespan”. In data set [2], the “Healthspan (health of surviving animals when sacrificed)” value is “healthspan was extended”. In data set [3], the half-life at 1 μM is 1.01 h and the microsomal CLint at 1 μM came out at 11.4 µL/min/mg.

With `[2H]C([2H])(N[C@H]1CC[C@H](O)CC1)c1cc(Br)cc(Br)c1N` [ZW-001], in data set [3], the half-life at 1 μM was found to be 1.65 h and the microsomal CLint at 1 μM stood at 7 µL/min/mg.
